Data published in patent US6355799B1, “Substituted benzene compounds, process for their preparation, and herbicidal and defoliant compositions containing them” (ISK Americas Incorporated, priority 1997, dated 2002).

How the values were obtained:
Format in all cases: in vivo
[1] = test system: redroot pigweed (Amaranthus retroflexus, AMARE); test: Pre-emerge test, greenhouse herbicide activity screening; conditions: phytotoxicity rating 0-100, 14 days after application
Method in brief: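 Rating: 0–100 visual injury, 14 DAA. Application: acetone, 187 l/ha, 15–1000 g ai/ha, flat-fan track sprayer with nozzle 40–45 cm above soil or canopy. Post-emerge runs used 0.25% v/v surfactant on 2–3 leaf plants.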

[2] = test system: barnyardgrass (Echinochloa crus-galli, ECHCG); test: as above; conditions: phytotoxicity rating 0-100, 14 days after application
Method in brief: (§1)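 Visual ratings on a 0-100 scale (0 no damage, 100 all plants dead) were taken at 14 days after treatment. Rates of 15-1000 g ai/ha in acetone, 187 l/ha, were sprayed onto soil one day after planting (pre-emerge) or onto 2-3 leaf plants with 0.25% v/v surfactant (post-emerge).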

[3] = test system: green foxtail (Setaria viridis, SETVI); test: as above; conditions: phytotoxicity rating 0-100, 14 days after application
Method in brief: as §1

[4] = test system: ivyleaf morningglory (Ipomoea hederacea, IPOHE); test: as above; conditions: phytotoxicity rating 0-100, 14 days after application
Method in brief: as §1

[5] = test system: johnsongrass (Sorghum halepense, SORHA); test: as above; conditions: phytotoxicity rating 0-100, 14 days after application
Method in brief: as §1

[6] = test system: lambsquarters (Chenopodium album, CHEAL); test: as above; conditions: phytotoxicity rating 0-100, 14 days after application
Method in brief: as §1

[7] = test system: large crabgrass (Digitaria sanguinalis, DIGSA); test: as above; conditions: phytotoxicity rating 0-100, 14 days after application
Method in brief: as §1

[8] = test system: sicklepod (Cassia obtusifolia, CASOB); test: as above; conditions: phytotoxicity rating 0-100, 14 days after application
Method in brief: as §1

[9] = test system: velvetleaf (Abutilon theophrasti, ABUTH); test: as above; conditions: phytotoxicity rating 0-100, 14 days after application
Method in brief: as §1

[10] = test system: field corn (Zea mays L., var. Dekalb 535, CORN); test: Pre-emerge test, crop safety; conditions: crop damage rating 0-100, 14 days after application
Method in brief: (§2)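 Herbicidal damage is scored 0 (none) to 100 (complete plant death) two weeks after a simulated field spray. Rates span 15–1000 g ai/ha, delivered in acetone at 187 l/ha. For post-emergence treatments, plants have 2–3 leaves and the spray carries 0.25% v/v non-ionic surfactant.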

[11] = test system: upland rice (Oryza sp., var. Tebonnet, RICE); test: Pre-emerge test, crop safety; conditions: crop damage rating 0-100, 14 days after application
Method in brief: as §2

[12] = test system: barnyardgrass (Echinochloa crus-galli, ECHCG); test: Post-emerge test, greenhouse herbicide activity screening; conditions: post-emerge, 14 days after application, rating scale 0-100
Method in brief: (§3)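 Compounds in acetone were track-sprayed at 15–1000 g ai/ha: pre-emergence onto soil sown the previous day, then top-watered to incorporate and later bottom-watered; post-emergence onto 2–3 leaf plants with 0.25% v/v surfactant, bottom-watered only. Ratings on a 0–100 phytotoxicity scale were taken at day 14.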

[13] = test system: green foxtail (Setaria viridis, SETVI); test: as above; conditions: post-emerge, 14 days after application, rating scale 0-100
Method in brief: as §3

[14] = test system: ivyleaf morningglory (Ipomoea hederacea, IPOHE); test: as above; conditions: post-emerge, 14 days after application, rating scale 0-100
Method in brief: as §3

[15] = test system: johnsongrass (Sorghum halepense, SORHA); test: as above; conditions: post-emerge, 14 days after application, rating scale 0-100
Method in brief: as §3

[16] = test system: lambsquarters (Chenopodium album, CHEAL); test: as above; conditions: post-emerge, 14 days after application, rating scale 0-100
Method in brief: as §3

[17] = test system: large crabgrass (Digitaria sanguinalis, DIGSA); test: as above; conditions: post-emerge, 14 days after application, rating scale 0-100
Method in brief: as §3

[18] = test system: redroot pigweed (Amaranthus retroflexus, AMARE); test: as above; conditions: post-emerge, 14 days after application
Method in brief: as §3

[19] = test system: sicklepod (Cassia obtusifolia, CASOB); test: as above; conditions: post-emerge, 14 days after application, rating scale 0-100
Method in brief: as §3

[20] = test system: velvetleaf (Abutilon theophrasti, ABUTH); test: as above; conditions: post-emerge, 14 days after application, rating scale 0-100
Method in brief: as §3

[21] = test system: field corn (Zea mays L., var. Dekalb 535, CORN); test: Post-emerge test, crop safety; conditions: post-emerge, 14 days after application, rating scale 0-100
Method in brief: as §1

[22] = test system: upland rice (Oryza sp., var. Tebonnet, RICE); test: Post-emerge test, crop safety; conditions: post-emerge, 14 days after application, rating scale 0-100
Method in brief: as §1

COc1c(Cl)cc(F)c(-n2c(=O)cc(C(F)(F)F)n(C)c2=O)c1NC(=O)OCc1c(F)cccc1F [4-29]
Pre-emerge Herbicidal Activity AMARE ([1]; 63 g ai/ha): 100 | Pre-emerge Herbicidal Activity AMARE ([1]; 250 g ai/ha): 100 | Pre-emerge Herbicidal Activity ECHCG ([2]; 63 g ai/ha): 70 | Pre-emerge Herbicidal Activity ECHCG ([2]; 250 g ai/ha): 90 | Pre-emerge Herbicidal Activity SETVI ([3]; 63 g ai/ha): 100 | Pre-emerge Herbicidal Activity SETVI ([3]; 250 g ai/ha): 100 | Pre-emerge Herbicidal Activity IPOHE ([4]; 63 g ai/ha): 70 | Pre-emerge Herbicidal Activity IPOHE ([4]; 250 g ai/ha): 90 | Pre-emerge Herbicidal Activity SORHA ([5]; 63 g ai/ha): 70 | Pre-emerge Herbicidal Activity SORHA ([5]; 250 g ai/ha): 90 | Pre-emerge Herbicidal Activity CHEAL ([6]; 63 g ai/ha): 100 | Pre-emerge Herbicidal Activity CHEAL ([6]; 250 g ai/ha): 100 | Pre-emerge Herbicidal Activity DIGSA ([7]; 63 g ai/ha): 100 | Pre-emerge Herbicidal Activity DIGSA ([7]; 250 g ai/ha): 100 | Pre-emerge Herbicidal Activity CASOB ([8]; 63 g ai/ha): 40 | Pre-emerge Herbicidal Activity CASOB ([8]; 250 g ai/ha): 80 | Pre-emerge Herbicidal Activity ABUTH ([9]; 63 g ai/ha): 100 | Pre-emerge Herbicidal Activity ABUTH ([9]; 250 g ai/ha): 100 | Pre-emerge Herbicidal Activity CORN ([10]; 63 g ai/ha): 80 | Pre-emerge Herbicidal Activity CORN ([10]; 250 g ai/ha): 95 | Pre-emerge Herbicidal Activity RICE ([11]; 63 g ai/ha): 50 | Pre-emerge Herbicidal Activity RICE ([11]; 250 g ai/ha): 85 | phytotoxicity rating ECHCG ([12]; 63 g ai/ha): 70 | phytotoxicity rating ECHCG ([12]; 250 g ai/ha): 90 | phytotoxicity rating SETVI ([13]; 63 g ai/ha): 80 | phytotoxicity rating SETVI ([13]; 250 g ai/ha): 99 | phytotoxicity rating IPOHE ([14]; 63 g ai/ha): 100 | phytotoxicity rating IPOHE ([14]; 250 g ai/ha): 100 | phytotoxicity rating SORHA ([15]; 63 g ai/ha): 60 | phytotoxicity rating SORHA ([15]; 250 g ai/ha): 100 | phytotoxicity rating CHEAL ([16]; 63 g ai/ha): 90 | phytotoxicity rating CHEAL ([16]; 250 g ai/ha): 100 | phytotoxicity rating DIGSA ([17]; 63 g ai/ha): 50 | phytotoxicity rating DIGSA ([17]; 250 g ai/ha): 90 | phytotoxicity rating AMARE ([18]; 63 g ai/ha, rating scale 0-100 (0 no damage, 100 complete death)): 100 | phytotoxicity rating AMARE ([18]; 250 g ai/ha, rating scale 0-100): 100 | phytotoxicity rating CASOB ([19]; 63 g ai/ha): 90 | phytotoxicity rating CASOB ([19]; 250 g ai/ha): 100 | phytotoxicity rating ABUTH ([20]; 63 g ai/ha): 100 | phytotoxicity rating ABUTH ([20]; 250 g ai/ha): 100 | phytotoxicity rating CORN (crop damage) ([21]; 63 g ai/ha): 80 | phytotoxicity rating CORN (crop damage) ([21]; 250 g ai/ha): 100 | phytotoxicity rating RICE (crop damage) ([22]; 63 g ai/ha): 60 | phytotoxicity rating RICE (crop damage) ([22]; 250 g ai/ha): 85
